How the values were obtained:
Assay type in all cases: cell-based
[1] = tested on: Ba/F3 parental generation cells; assay: Cytotoxicity assay (CellTiter-Glo), Ba/F3 parental; conditions: Mus musculus, BaF3, Table 2, 72 hrs
Experimental: (§1) Inhibitory effects of example compounds on the activity of Ba/F3 parental generation, Ba/F3 KIF5B-RET, Ba/F3 KIF5B-RET^V804M, Ba/F3 KIF5B-RET^V804L, Ba/F3 KIF5B-RET^G810R, Ba/F3 FLT3-ITD, Ba/F3 FLT3-ITD^D835Y, Ba/F3 FLT3-ITD^F691L cells were determined.
(§2) Materials and reagents: fetal bovine serum FBS (GIBCO, Cat #10099141), CellTiter-Glo® Luminescent Cell Viability Assay kit (Promega, Cat #G7572), 96-well black-wall clear flat-bottom plate (Corning®, Cat #3603).
(§3) 1. Cells in the logarithmic growth phase were harvested and counted with a […]. Cell viability was detected by a trypan blue exclusion method, ensuring that cell viability was 90% or more; 2. Cell concentration was adjusted to about 3000 cells/well; 90 μl of cell suspension was added to each well of the 96-well plate; 3. The cells in the 96-well plate were incubated overnight under the condition of 37° C., 5% CO2, and 95% humidity.
(§4) 1. A series of compound solutions were formulated by 3.16-fold serial dilution starting from a concentration of 10 μM, resulting in 9 concentrations. 10 μL of the compound solutions were added in each well of the 96-well plate seeded with cells in triplicate for each compound concentration; 2. The cells in the 96-well plate added with compounds were further incubated under the condition of 37° C., 5% CO2, and 95% humidity for 72 hrs, and then CTG analysis was carried out.
(§5) 1. CTG reagent was thawed, and the cell plate was equilibrated at room temperature for 30 minutes; 2. An equal volume […] of CTG solution was added to each well; 3. The cell plate was shaken on an orbital shaker for 5 minutes to lyse the cells; 4. The cell plate was placed at RT for 20 minutes to stabilize the luminescence signal; 5. Luminescence value was read.
(§6) Data were Analyzed by GraphPad Prism 5.0 Software, and Fitted by Nonlinear S-Curve Regression to obtain a dose-response curve, from which IC50 values were calculated.
(§7) Cell survival rate (%)=(luminescence value of drug to be tested−luminescence value of culture medium control)/(luminescence value of cell control−luminescence value of culture medium control)×100%.

[2] = biological target: T1, Ba/F3 FLT3-ITD^D835Y cells (Homo sapiens, UniProt P36888, D835Y, cells depend on it, form not given); assay: Cytotoxicity assay (CellTiter-Glo), Ba/F3 FLT3-ITD D835Y; conditions: CellTiter-Glo, 72 hrs; read-out: Ba/F3 FLT3-ITD^D835Y IC50
T1 construct: Ba/F3 FLT3-ITD^D835Y IC50 (nM); other: CellTiter-Glo, 72 hrs
T1 sequence (P36888 1-993 D835Y): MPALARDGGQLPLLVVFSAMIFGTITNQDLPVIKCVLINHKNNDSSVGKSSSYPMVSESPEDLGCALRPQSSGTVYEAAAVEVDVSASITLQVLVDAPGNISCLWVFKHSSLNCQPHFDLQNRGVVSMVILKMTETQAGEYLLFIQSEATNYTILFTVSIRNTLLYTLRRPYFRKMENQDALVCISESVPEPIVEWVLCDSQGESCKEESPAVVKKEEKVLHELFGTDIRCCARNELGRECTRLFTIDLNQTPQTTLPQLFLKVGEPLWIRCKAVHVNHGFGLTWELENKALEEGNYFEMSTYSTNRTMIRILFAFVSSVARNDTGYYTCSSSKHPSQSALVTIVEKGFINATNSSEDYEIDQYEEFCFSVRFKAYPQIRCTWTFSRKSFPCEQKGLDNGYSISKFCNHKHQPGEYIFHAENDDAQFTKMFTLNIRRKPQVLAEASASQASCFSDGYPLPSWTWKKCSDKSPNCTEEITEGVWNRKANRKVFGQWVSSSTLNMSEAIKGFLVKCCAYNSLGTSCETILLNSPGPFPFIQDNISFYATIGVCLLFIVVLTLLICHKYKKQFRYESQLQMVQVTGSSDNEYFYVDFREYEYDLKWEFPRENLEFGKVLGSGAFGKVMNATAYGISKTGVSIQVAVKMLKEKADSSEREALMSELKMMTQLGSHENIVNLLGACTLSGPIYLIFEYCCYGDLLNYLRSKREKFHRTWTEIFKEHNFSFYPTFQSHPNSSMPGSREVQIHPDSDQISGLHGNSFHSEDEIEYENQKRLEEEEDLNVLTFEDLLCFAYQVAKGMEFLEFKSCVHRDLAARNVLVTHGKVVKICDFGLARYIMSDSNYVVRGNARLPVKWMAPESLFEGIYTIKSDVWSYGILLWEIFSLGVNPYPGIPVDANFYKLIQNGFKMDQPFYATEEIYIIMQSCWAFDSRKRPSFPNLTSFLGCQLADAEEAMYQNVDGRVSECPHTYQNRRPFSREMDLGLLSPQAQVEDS
Experimental: as §1, §2, §3, §4, §5, §6, §7

[3] = tested on: Ba/F3 FLT3-ITD^D835Y cells; assay: as above; conditions: ratio of Ba/F3 parental IC50 to Ba/F3 FLT3-ITD^D835Y IC50
Experimental: as §1, §2, §3, §4, §5, §6, §7

[4] = tested on: Ba/F3 KIF5B-RET^V804M cells; assay: Cytotoxicity assay (CellTiter-Glo), Ba/F3 KIF5B-RET V804M; conditions: ratio of Ba/F3 parental IC50 to Ba/F3 KIF5B-RET^V804M IC50
Experimental: as §1, §2, §3, §4, §5, §6, §7

[5] = biological target: T2, Ba/F3 KIF5B-RET^V804M cells (Homo sapiens, UniProt P07949, V804M, cells depend on it); assay: as above; conditions: CellTiter-Glo, 72 hrs; read-out: Ba/F3 KIF5B-RET^V804M IC50
T2 construct: Ba/F3 KIF5B-RET^V804M IC50 (nM); other: CellTiter-Glo, 72 hrs; fused on or other part: P33176 (Kinesin-1 heavy chain)
T2 sequence (P07949 whole entry V804M, the tested form may be a part): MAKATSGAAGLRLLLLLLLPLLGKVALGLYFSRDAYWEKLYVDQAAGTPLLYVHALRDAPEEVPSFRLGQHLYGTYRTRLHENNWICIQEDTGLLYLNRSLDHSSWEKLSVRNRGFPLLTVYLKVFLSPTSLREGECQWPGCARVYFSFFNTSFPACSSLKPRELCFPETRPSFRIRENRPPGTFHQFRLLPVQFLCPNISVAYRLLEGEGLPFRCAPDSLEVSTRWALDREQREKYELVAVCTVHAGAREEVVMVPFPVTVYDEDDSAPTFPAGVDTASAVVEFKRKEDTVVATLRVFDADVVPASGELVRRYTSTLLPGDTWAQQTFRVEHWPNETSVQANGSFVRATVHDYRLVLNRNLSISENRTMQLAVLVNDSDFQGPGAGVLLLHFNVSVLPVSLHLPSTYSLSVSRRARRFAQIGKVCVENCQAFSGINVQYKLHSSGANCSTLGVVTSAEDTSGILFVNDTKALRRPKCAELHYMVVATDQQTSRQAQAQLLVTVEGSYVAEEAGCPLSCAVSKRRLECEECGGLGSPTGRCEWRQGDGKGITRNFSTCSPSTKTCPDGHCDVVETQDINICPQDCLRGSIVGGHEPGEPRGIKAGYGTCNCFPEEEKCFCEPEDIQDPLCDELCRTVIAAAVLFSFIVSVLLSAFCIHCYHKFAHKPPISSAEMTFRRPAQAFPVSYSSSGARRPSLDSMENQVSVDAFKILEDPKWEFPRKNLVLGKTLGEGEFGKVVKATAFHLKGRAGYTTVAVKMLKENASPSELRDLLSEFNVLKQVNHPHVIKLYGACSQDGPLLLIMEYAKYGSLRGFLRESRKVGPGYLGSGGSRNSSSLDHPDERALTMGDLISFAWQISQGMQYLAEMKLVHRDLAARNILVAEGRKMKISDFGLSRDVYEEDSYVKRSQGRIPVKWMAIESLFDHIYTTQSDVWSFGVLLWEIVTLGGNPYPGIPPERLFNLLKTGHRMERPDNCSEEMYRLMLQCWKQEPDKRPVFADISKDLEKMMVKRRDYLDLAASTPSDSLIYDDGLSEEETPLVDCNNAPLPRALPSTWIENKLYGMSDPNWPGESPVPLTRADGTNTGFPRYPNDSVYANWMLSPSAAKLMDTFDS
Experimental: as §1, §2, §3, §4, §5, §6, §7

Row | Compound | IC50 [1] [µM] | GI50 [2] [µM] | Ba/F3 FLT3-ITD^D835Y Selectivity on parental generation [3] | Ba/F3 KIF5B-RET^V804M Selectivity on parental generation [4] | GI50 [5] [µM]
1 | CC(C)n1nc(-c2ccc(NC(=O)Nc3cc(C(F)(F)F)ccc3F)cc2)c2c(N)ncnc21 [AD80, reference compound] | 0.812 | 0.0301 | 21.82 | 75.2 | 0.0108
2 | CC(C)n1nc(-c2ccc(CC(=O)Nc3cc(C(C)(C)C(F)(F)F)on3)cc2)c2c(N)ncnc21 [Compound T-1, 2-(4-(4-amino-1-isopropyl-1H-pyrazolo[3,4-d]pyrimidin-3-yl)phenyl)-N-(5-(1,1,1-trifluoro-2-methylprop-2-yl)isoxazol-3-yl)acetamide] | 1.62 | 0.0144 | 137.97 | 286.8 | 0.00565
3 | CC(C)n1nc(-c2ccc(NC(=O)Nc3cc(C(C)(C)C(F)(F)F)on3)cc2)c2c(N)ncnc21 [Compound T-2, 1-(4-(4-amino-1-isopropyl-1H-pyrazolo[3,4-d]pyrimidin-3-yl)phenyl)-3-(5-(1,1,1-trifluoro-2-methylprop-2-yl)isoxazol-3-yl)urea] | 0.338 | 0.00605 | 35.48 | 128.0 | 0.00264
4 | CC(C)n1cc(-c2ccc(CC(=O)Nc3cc(C(C)(C)C(F)(F)F)on3)cc2)c2c(N)ncnc21 [Compound T-3, 2-(4-(4-amino-7-isopropyl-7H-pyrrolo[2,3-d]pyrimidin-5-yl)phenyl)-N-(5-(1,1,1-trifluoro-2-methylprop-2-yl)isoxazol-3-yl)acetamide] | 0.724 | 0.00292 | 218.67 | 225.7 | 0.00321
5 | CC(C)c1nc(-c2ccc(CC(=O)Nc3cc(C(C)(C)C(F)(F)F)on3)cc2)c2c(N)nccn12 [Compound T-4, 2-(4-(8-amino-3-isopropylimidazo[1,5-a]pyrazin-1-yl)phenyl)-N-(5-(1,1,1-trifluoro-2-methylprop-2-yl)isoxazol-3-yl)acetamide] | 0.701 | 0.0231 | 32.03 | 73.6 | 0.00953
6 | CC(C)c1cc(-c2ccc(CC(=O)Nc3cc(C(C)(C)C(F)(F)F)on3)cc2)c2c(N)ncnn12 [Compound T-5, 2-(4-(4-amino-7-isopropylpyrrolo[2,1-f][1,2,4]triazin-5-yl)phenyl)-N-(5-(1,1,1-trifluoro-2-methylprop-2-yl)isoxazol-3-yl)acetamide] | 4.78 | 0.0358 | 133.6 | 370.8 | 0.0129
7 | CC(C)n1nc(-c2ccc(CC(=O)Nc3cc(C(C)(C)C(F)(F)F)on3)c(F)c2)c2c(N)ncnc21 [Compound T-6, 2-(4-(4-amino-1-isopropyl-1H-pyrazolo[3,4-d]pyrimidin-3-yl)-2-fluorophenyl)-N-(5-(1,1,1-trifluoro-2-methylprop-2-yl)isoxazol-3-yl)acetamide] | 2.1 | 0.0096 | 193.58 | 211.7 | 0.0099
8 | CC(C)n1nc(-c2ccc(CC(=O)Nc3cc(C(C)(C)C(F)(F)F)on3)cn2)c2c(N)ncnc21 [Compound T-7, 2-(6-(4-amino-1-isopropyl-1H-pyrazolo[3,4-d]pyrimidin-3-yl)pyridin-3-yl)-N-(5-(1,1,1-trifluoro-2-methylprop-2-yl)isoxazol-3-yl)acetamide] | 0.328 | 0.00557 | 32.63 | 95.9 | 0.00342
9 | CC(C)n1nc(-c2ccc(CC(=O)Nc3cc(C(C)(C)C(F)(F)F)no3)cc2)c2c(N)ncnc21 [Compound T-8, 2-(4-(4-amino-1-isopropyl-1H-pyrazolo[3,4-d]pyrimidin-3-yl)phenyl)-N-(3-(1,1,1-trifluoro-2-methylprop-2-yl)isoxazol-5-yl)acetamide] | 3.68 | 0.00734 | 500.9 | 1021.4 | 0.0036
10 | CC(C)n1nc(-c2ccc(CC(=O)Nc3cc(C(C)(C)C(F)(F)F)no3)cn2)c2c(N)ncnc21 [Compound T-9, 2-(6-(4-amino-1-isopropyl-1H-pyrazolo[3,4-d]pyrimidin-3-yl)pyridin-3-yl)-N-(3-(1,1,1-trifluoro-2-methylprop-2-yl)isoxazol-5-yl)acetamide] | 4.12 | 0.0469 | 87.8 | 137.7 | 0.0299
11 | CC(C)c1nc(-c2ccc(CC(=O)Nc3cc(C(C)(C)C(F)(F)F)on3)cc2)c2c(N)ncnn12 [Compound T-10, 2-(4-(4-amino-7-isopropylimidazo[5,1-f][1,2,4]triazin-5-yl)phenyl)-N-(5-(1,1,1-trifluoro-2-methylprop-2-yl)isoxazol-3-yl)acetamide] | 2.24 | 0.0464 | 48.3 | 191.6 | 0.0117
12 | [2H]C([2H])([2H])C(n1nc(-c2ccc(CC(=O)Nc3cc(C(C)(C)C(F)(F)F)no3)cc2)c2c(N)ncnc21)C([2H])([2H])[2H] [Compound T-11, 2-(4-(4-amino-1-(propan-2-yl-1,1,1,3,3,3-d6)-1H-pyrazolo[3,4-d]pyrimidin-3-yl)phenyl)-N-(3-(1,1,1-trifluoro-2-methylpropan-2-yl)isoxazol-5-yl)acetamide] | 5.51 | 0.0179 | 307.7 | 1517.1 | 0.00363
13 | [2H]C([2H])([2H])C(n1cc(-c2ccc(CC(=O)Nc3cc(C(C)(C)C(F)(F)F)on3)cc2)c2c(N)ncnc21)C([2H])([2H])[2H] [Compound T-12, 2-(4-(4-amino-7-(propen-2-yl-1,1,1,3,3,d6)-7H-pyrrolo[2,3-d]pyrimidin-5-yl)phenyl)-N-(5-(1,1,1-trifluo-2-methylpropan-2-yl)isoxazol-3-yl)acetamide] | 1.07 | 0.0123 | 87.2 | 235.6 | 0.00455
